Measurements taken from patent US20130123618A1, “Imaging Agents” (priority 2008, published 2013).

Columns and labels:
[1] = system: A549 Human Lung adenocarcinoma cells; test: in vitro amino acid uptake in A549 cells; type: cell-based
From the text: (§1) Compounds have been evaluated in vitro for tumor binding specificity (i.e. uptake cells) using a variety of tumor cell lines available in the art, along with reference compounds such as Me-AlB and BCH. Detailed description of these assays can be found in Martarello et al. (2002) Journal of Medicinal Chemistry, 45:2250-2259 and McConathy et al. (2003) Nuclear Medicine and Biology, 30:477-490. These so called “amino acid uptake studies” are typically carried out with radiolabeled compounds in at least five phenotypically different human tumor cell lines (e.g., A549 lung carcinoma, MB468 breast carcinoma, DU145 prostate carcinoma-androgen independent, LnCap-androgen dependent, SKOV3 ovarian carcinoma, U87 glial blastoma, MIA PaCa-2 pancreas carcinoma, MDA MB231 breast carcinoma). These tumor cell lines can be grown either in vitro or in vivo with severe combined immunodeficiency (SCID) mice as a host. The afore-mentioned tumor cell lines are available at the Winship Cancer Institute of Emory University.
(§2) For the in vitro amino acid uptake studies, all cells can be grown to monolayer confluency in T-175 culture flasks [Corning, Corning, N.Y.] (approx. 1×10^8 cells/flask) in Dulbecco's Modified Eagle's Medium (DMEM) [Sigma, St. Louis, Mo.] in a humidified incubator (37° C., 5% CO2/95% air). […]
(§3) In the in vitro studies the uptake rate of each amino acid compound is measured in each tumor line, as well as the dominant transport mechanisms of each tumor cell line. After trypsinization, cells are resuspended in serum-free media, then counted on a hemocytometer, with viability assessed through Trypan blue staining. […] The vials are placed in a Cobra-II gamma counter (Packard, Meriden, Conn.), with the activity per cell number determined. […] Saline washes are performed as described above, and the filtered cells' radioactivity determined on the gamma counter. […]
(§4) The uptake of all compounds were measured in human and rat cancer cell lines and the dominant transport (“A” and “L”) mechanism of each culture were determined. […]

[2] = system: SKOV3 Human Ovarian carcinoma cells; test: in vitro amino acid uptake in SKOV3 cells; type: cell-based
From the text: as §1, §2, §3, §4

[3] = system: MDA MB468 Human Breast carcinoma cells; test: in vitro amino acid uptake in MDA MB468 cells; type: cell-based
From the text: as §1, §2, §3, §4

[4] = system: A549, human lung cancer cells implanted in flanks; test: tissue distribution in SCID mice bearing A549 tumors; type: in vivo; conditions: for tissue distribution, blood / tissue distribution, bone / tissue distribution, brain / tissue distribution, heart / tissue distribution, kidney / tissue distribution, liver / tissue distribution, lung / tissue distribution, muscle / tissue distribution, pancreas / tissue distribution, spleen / tissue distribution, tumor: A549 tumor-bearing SCID mice, tail vein, ave
Method: For the in vitro amino acid uptake studies, all cells can be grown to monolayer confluency in T-175 culture flasks [Corning, Corning, N.Y.] (approx. 1×10^8 cells/flask) in Dulbecco's Modified Eagle's Medium (DMEM) [Sigma, St. Louis, Mo.] in a humidified incubator (37° C., 5% CO2/95% air). Media are supplemented with 10% fetal calf serum [Hyclone, Logan, Utah], and antibiotics (10,000 U/ml penicillin and 10 mg/ml streptomycin) (Sigma, St. Louis, Mo.). For tissue culture passage, monolayer cells are detached by gentle trypsinization, resuspended in complete media, and split 1:10 into new T-flasks. Cultures are passaged weekly, and fed fresh media every 2 to 3 days. To initiate tumor growth in SCID mice, 1×10^6 cells are injected s.c. bilaterally into the flanks (inguinal region) of the recipient animals using a 1 ml syringe with a 27 gauge needle. Ex vivo experiments can be performed with animals containing tumors weighing between 500 mg and 1 g, as estimated by caliper measurement (tumor weight=(π/6)*abc, where a, b and c are the tumor length, width and height, respectively).
Tissue distribution of the compounds is measured in SCID mice (average weight, 20-25 g) bearing human tumors as follows. The candidate radioligands (20 uCi in 0.4 ml 0.9% NaCl) are injected into the tail vein of tumor-bearing mice. […] Tissues (blood, heart, liver, lungs, kidneys, bone, thyroid, muscle, brain and tumor) are excised, rinsed in saline, and blotted dry. The tissues are weighed, placed into 12×75 mm glass vials, the radioactivity determined with a gamma counter, and the percent dose/gram calculated. Total activities of blood and muscle are calculated by assuming that they account for 7% and 40% of the total body mass, respectively.
Tables 3-7 show the results of the biodistribution studies with the separate enantiomers of anti-2-[^18F]FACPC and racemic anti-2-[^18F]FACBC as a comparison in SCiD mice implanted in their flanks with A549, human lung cancer cells and DU145, human prostate cancer cells.

tumor cells = test: overall conclusion of uptake studies in cancer cells in vitro; type: cell-based
Method: In the in vitro studies the uptake rate of each amino acid compound is measured in each tumor line, as well as the dominant transport mechanisms of each tumor cell line. After trypsinization, cells are resuspended in serum-free media, then counted on a hemocytometer, with viability assessed through Trypan blue staining. Approximately 1×10^7 cells are exposed to each compound (15 μCi) in 15 ml of amino acid free media for 5, 10, 15, 30 and 60 minutes at 37° C. Cells are then centrifuged at 150×g for 5 minutes, rinsed in 5 ml cold-saline, recentrifuged, resuspended in 3 ml saline, and placed into 12×75 mm glass vials (Fisher, Pittsburgh, Pa.). The vials are placed in a Cobra-II gamma counter (Packard, Meriden, Conn.), with the activity per cell number determined. Inhibition studies determine the dominant transport mechanism (L, A or ASC) for each line [Martarello et al. (2002) supra; McConathy et al. (2003) supra]. For these studies, cells are exposed to the compounds for 30 minutes in amino acid free media containing one of three inhibitors (2-amino-norbornyl-2-carboxylic acid (BCH), 10 mM; α-(methylamino)-isobutyric acid (MeAlB), 10 mM; and an alanine-serine-cysteine mixture 1:1:1 (acs), 10 mM). Saline washes are performed as described above, and the filtered cells' radioactivity determined on the gamma counter. Comparisons with the 30 minute control uptake indicate the major transporters used. Results of these studies are found in FIGS. 1-18.
Approximately 10^6 cells were exposed to the [^18F]amino acid candidate (5 μCi) in 3 ml of amino acid-free media±transporter inhibitors (10 mM) for 30 minutes under incubation conditions by the method previously described (McConathy, J.; Martarello, L.; Malveaux, E.; Camp, V.; Bowers, G.; Olson, J.; Goodman, M. (2002) Radiolabeled amino acids for tumor imaging with PET: radiosynthesis and biological evaluation of [^18F]2-amino-3-fluoro-2-methylpropanoic acid and [^18F]3-fluoro-2-methyl-2-(methylamino)-propanoic acid. J. Med. Chem. 45, 2240-2249). The inhibition studies determined the dominant transport mechanism (L, A) for each candidate PET amino acid for each tumor model. 2-Methylaminoisobutyric acid (MeAlB) and 2-aminobicyclo-[2.2.1]-heptane-2-carboxylic acid (BCH) serve as inhibitors for the “A”, “L” transport systems, respectively.

[5] = A549 cells implanted subcutaneously in flanks of SCID mice
[6] = 15 min, listed as Anti-2-[^18F]FACPC Enantiomer 1
[7] = 60 min, listed as Anti-2-[^18F]FACPC Enantiomer 1

SMILES: NC1(C(=O)O)CCC1[18F] (racemic) [racemic anti-2-[^18F]FACBC]
- % Dose uptake per 0.5 × 10−6 Cells [1]: 8.9 % Dose/0.5 × 10^−6
- % Dose uptake per 0.5 × 10−6 Cells [2]: 2.2 % Dose/0.5 × 10^−6
- % Dose uptake per 0.5 × 10−6 Cells [3]: 7.4 % Dose/0.5 × 10^−6
- tissue distribution, blood ([4]; 15 min): 3.39 percent dose/gram
- tissue distribution, bone ([4]; 15 min): 2.07 percent dose/gram
- tissue distribution, brain ([4]; 15 min): 0.27 percent dose/gram
- tissue distribution, heart ([4]; 15 min): 2.71 percent dose/gram
- tissue distribution, kidney ([4]; 15 min): 10.12 percent dose/gram
- tissue distribution, liver ([4]; 15 min): 3.15 percent dose/gram
- tissue distribution, lung ([4]; 15 min): 4.23 percent dose/gram
- tissue distribution, muscle ([4]; 15 min): 1.38 percent dose/gram
- tissue distribution, pancreas ([4]; 15 min): 48.45 percent dose/gram
- tissue distribution, spleen ([4]; 15 min): 7.91 percent dose/gram
- tissue distribution, tumor ([4]; 15 min): 5.11 percent dose/gram
- tissue distribution, blood ([4]; 30 min): 2.43 percent dose/gram
- tissue distribution, bone ([4]; 30 min): 1.64 percent dose/gram
- tissue distribution, brain ([4]; 30 min): 0.26 percent dose/gram
- tissue distribution, heart ([4]; 30 min): 2.24 percent dose/gram
- tissue distribution, kidney ([4]; 30 min): 5.48 percent dose/gram
- tissue distribution, liver ([4]; 30 min): 2.70 percent dose/gram
- tissue distribution, lung ([4]; 30 min): 3.03 percent dose/gram
- tissue distribution, muscle ([4]; 30 min): 1.44 percent dose/gram
- tissue distribution, pancreas ([4]; 30 min): 44.17 percent dose/gram
- tissue distribution, spleen ([4]; 30 min): 5.03 percent dose/gram
- tissue distribution, tumor ([4]; 30 min): 4.29 percent dose/gram
- tissue distribution, blood ([4]; 60 min): 1.09 percent dose/gram
- tissue distribution, bone ([4]; 60 min): 1.02 percent dose/gram
- tissue distribution, brain ([4]; 60 min): 0.16 percent dose/gram
- tissue distribution, heart ([4]; 60 min): 1.41 percent dose/gram
- tissue distribution, kidney ([4]; 60 min): 2.25 percent dose/gram
- tissue distribution, liver ([4]; 60 min): 1.47 percent dose/gram
- tissue distribution, lung ([4]; 60 min): 1.40 percent dose/gram
- tissue distribution, muscle ([4]; 60 min): 0.90 percent dose/gram
- tissue distribution, pancreas ([4]; 60 min): 20.64 percent dose/gram
- tissue distribution, spleen ([4]; 60 min): 2.86 percent dose/gram
- tissue distribution, tumor ([4]; 60 min): 3.04 percent dose/gram
- tissue distribution, blood ([4]; 120 min): 0.41 percent dose/gram
- tissue distribution, bone ([4]; 120 min): 0.62 percent dose/gram
- tissue distribution, brain ([4]; 120 min): 0.15 percent dose/gram
- tissue distribution, heart ([4]; 120 min): 0.86 percent dose/gram
- tissue distribution, kidney ([4]; 120 min): 1.03 percent dose/gram
- tissue distribution, liver ([4]; 120 min): 0.59 percent dose/gram
- tissue distribution, lung ([4]; 120 min): 0.56 percent dose/gram
- tissue distribution, muscle ([4]; 120 min): 0.77 percent dose/gram
- tissue distribution, pancreas ([4]; 120 min): 9.80 percent dose/gram
- tissue distribution, spleen ([4]; 120 min): 1.48 percent dose/gram
- tissue distribution, tumor ([4]; 120 min): 2.30 percent dose/gram
- uptake of radioactivity in the tumors compared with muscle ([4]; A549 tumors, SCID mice, time points sampled post injection): greater than muscle
- selective uptake in tumor cells (tumor cells): selectively taken up in tumor cells

SMILES: N[C@]1(C(=O)O)CCC[C@@H]1[18F] (single isomer, unassigned; enantiomer 1) [Enantiomer 1, anti-2-[^18F]FACPC]
- % Dose uptake per 0.5 × 10−6 Cells [1]: 13 % Dose/0.5 × 10^−6
- % Dose uptake per 0.5 × 10−6 Cells [2]: 7 % Dose/0.5 × 10^−6
- % Dose uptake per 0.5 × 10−6 Cells [3]: 15 % Dose/0.5 × 10^−6
- in vivo uptake compared with enantiomer 2 [4, 5]: greater uptake than enantiomer 2
- in vivo uptake compared with racemic 2-[^18F]FACBC [4, 5]: significantly higher in vivo uptake than racemic 2-[^18F]FACBC
- tissue distribution, blood [4, 6]: 3.98 percent dose/gram
- tissue distribution, bone [4, 6]: 3.08 percent dose/gram
- tissue distribution, brain [4, 6]: 0.81 percent dose/gram
- tissue distribution, heart [4, 6]: 3.78 percent dose/gram
- tissue distribution, kidney [4, 6]: 8.0 percent dose/gram
- tissue distribution, liver [4, 6]: 4.01 percent dose/gram
- tissue distribution, lung [4, 6]: 4.09 percent dose/gram
- tissue distribution, muscle [4, 6]: 2.47 percent dose/gram
- tissue distribution, pancreas [4, 6]: 57.83 percent dose/gram
- tissue distribution, spleen [4, 6]: 12.52 percent dose/gram
- tissue distribution, tumor [4, 6]: 9.77 percent dose/gram
- tissue distribution, blood [4, 7]: 1.59 percent dose/gram
- tissue distribution, bone [4, 7]: 2.43 percent dose/gram
- tissue distribution, brain [4, 7]: 0.81 percent dose/gram
- tissue distribution, heart [4, 7]: 2.49 percent dose/gram
- tissue distribution, kidney [4, 7]: 4.02 percent dose/gram
- tissue distribution, liver [4, 7]: 2.16 percent dose/gram
- tissue distribution, lung [4, 7]: 2.07 percent dose/gram
- tissue distribution, muscle [4, 7]: 2.43 percent dose/gram
- tissue distribution, pancreas [4, 7]: 27.09 percent dose/gram
- tissue distribution, spleen [4, 7]: 4.13 percent dose/gram
- tissue distribution, tumor [4, 7]: 7.16 percent dose/gram
- selective uptake in tumor cells (tumor cells): selectively taken up in tumor cells
- in vitro uptake in cancer cells compared with enantiomer 2 (tumor cells; in vitro in cancer cells): greater uptake than enantiomer 2
